Results on 5 molecules are retold here after patent US7271164B2, “Cyclohepta[b][1,4]diazepino[6,7,1,-hi]indoles and derivatives” (Wyeth, priority 2000, dated 2007).

One data set concerns the target T1, human 5-HT2C receptor (Homo sapiens, UniProt P28335).
T1 construct: expressed in transfected cells; host or cells: CHO cells
T1 sequence (P28335 33-458): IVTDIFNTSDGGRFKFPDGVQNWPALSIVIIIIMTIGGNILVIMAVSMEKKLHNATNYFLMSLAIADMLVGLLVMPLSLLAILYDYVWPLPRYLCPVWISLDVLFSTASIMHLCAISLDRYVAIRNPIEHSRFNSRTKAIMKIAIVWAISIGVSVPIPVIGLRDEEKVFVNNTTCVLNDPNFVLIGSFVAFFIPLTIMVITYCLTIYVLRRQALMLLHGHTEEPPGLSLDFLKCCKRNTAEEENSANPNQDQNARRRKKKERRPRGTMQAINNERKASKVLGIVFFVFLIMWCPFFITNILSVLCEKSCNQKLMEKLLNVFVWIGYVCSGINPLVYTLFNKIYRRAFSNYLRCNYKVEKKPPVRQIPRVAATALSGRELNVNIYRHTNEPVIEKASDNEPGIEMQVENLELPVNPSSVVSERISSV
The experiment in a line: Stimulation of [3H] Inositol Monophosphate Production by 5-HT2C Agonists (transfected CHO cells). The data set is classed as cell-based.

In data set [1] the target is T2, human 5-hydroxytryptamine2C (h5HT2C) receptor (Homo sapiens, UniProt P28335).
T2 construct: expressed in transfected cells; host or cells: CHO (Chinese Hamster Ovary) cells; membrane preparation
T2 sequence (P28335 33-458): T1 sequence (P28335 33-458)
The experiment in a line: 5HT2C Receptor Binding Test Procedure ([125I] DOI displacement, CHO cell membranes).

pEC50, pKd, pKi: −log10 of the molar value. Counter-ions that a name gives are not always drawn.

Procedure for human 5-HT2C receptor: One (1) ml of maintenance medium containing 1 μCi/ml myo-[^3H] inositol was added to each well. After 48 hours labeling, the cells were washed once with 0.5 ml DMEM containing 25 mM HEPES and 10 mM LiCl, then preincubated with the medium for 30 min (antagonists were included in this period if tested). At the end of the preincubation, the medium was removed, the cells were then incubated with test compounds (in presence of antagonists if needed) for 30 min. The reaction was terminated by removal of the incubation solution and addition of 0.5 ml ice-cold 5% PCA, followed by 15 to 30 min incubation on ice. 200 μl of 0.5 M Tes/1.5 M K2CO3 was added to each well to neutralize to pH 7, and plates were left on ice for another 15 to 30 min to precipitate all salts. The liquid and solid phases were separated by centrifugation.
A portion (350 μl) of the upper aqueous phase was applied to Dowex AG-1X8 (formate form, 100-200 mesh) columns. The columns were then washed stepwise with 10 ml of water and 10 ml of 25 mM ammonium formate to remove free myo-[^3H]inositol and deacylated phosphoinositol, respectively. Finally 10 ml of 0.2 M ammonium formate solution was applied to the columns to elute [^3H] inositol monophosphate ([^3H] IP1) directly into scintillation vials. Of this eluate, 1 ml was used to determine radioactivity by scintillation counting. […]

As for `c1cc2c3c(c1)c1c(n3CCNC2)CCCCC1` (as salt: hydrochloride) [Example 1, 1,2,3,4,9,10,11,12-Octahydro-8H-cyclohepta[b][1,4]diazepino[6,7,1-hi]indole], the melting point (commonly the temperature of the solid-liquid transition) was 303 to 306 °C.

`c1cc2c3c(c1)C1CCCCCC1N3CCNC2` (stereo not drawn) (as salt: hydrochloride) [Example 2, 1,2,3,4,8,9,10,11,12,12a-Decahydro-7bH-cyclohepta[b][1,4]diazepino[6,7,1-hi]indole] gave a melting point of 258 to 263 °C.

As for `c1cc2c3c(c1)c1c(n3CCNC2)CCCCC1` [Example 1, 1,2,3,4,9,10,11,12-Octahydro-8H-cyclohepta[b][1,4]diazepino[6,7,1-hi]indole], the Emax – broadly, the greatest response seen or fitted, relative to the assay's reference – at human 5-HT2C receptor (CHO, read-out: 5HT2C % Emax (5HT, 100%)) stood at 73%. Further, on human 5-HT2C receptor (read-out: Stimulation of IP3 (EC50)), the pEC50 (in general, −log10 of the EC50, conventionally taken in molar units) is 6.30.

For `CSc1ccc2c(c1)C(N1CCN(C)CC1)Cc1ccccc1S2` (stereo not drawn) [Methiothepin], in data set [1] (reference compounds, [125I] DOI binding, h5HT2C in CHO membranes, read-out: Ki value and 95% confidence interval), the negative logarithm of the Ki (pKi) (usually the Ki on a negative log10 scale, so that one unit is a factor of ten) is 8.34.

`COc1cc(CC(C)N)c(OC)cc1I` (stereo not drawn) [[^125I] DOI]: the negative logarithm of the Kd (pKd) – broadly, −log10 of the Kd, conventionally taken in molar units – in data set [1] (read-out: dissociation constant, KD of [125I] DOI at the human serotonin 5HT2C receptor, saturation binding with increasing concentrations of [125I] DOI) was 9.40.
